From publication PMC5216056 (Nature Communications, 2017)
Where “and” joins values, the source holds several entries; their conditions need not be identical. Equal entries are not always repeated. Where two headings read alike, the source gives them in different places.

Legend:
[1] = tested on: BZD (central); type: binding; details: 10 µM
[2] = target: T1, Human recombinant TRPV1 (Homo sapiens, UniProt Q8NER1); experiment: cell-based; type: cell-based; details: for EC50: read-out: TRPV1 Potency EC50
T1 construct: expressed in transfected cells; host or cells: HEK293 (TRPV1-HEK-293, gift from John Davis, GlaxoSmithKline)

[3] = i.v., mice; for C0: 1.0-2.0 mg/kg, extrapolated
[4] = target: T2, Rat recombinant TRPV2 (Rattus norvegicus, UniProt Q9WUD2); experiment: cell-based; type: cell-based; details: for IC50: vs LPC 3μM, read-out: TRPV2 IC50 for antagonism or desensitization
T2 construct: expressed in transfected cells; host or cells: HEK293 (plasmid a gift from HB Bradshaw, Indiana University)
T2 sequence (Q9WUD2 1-761): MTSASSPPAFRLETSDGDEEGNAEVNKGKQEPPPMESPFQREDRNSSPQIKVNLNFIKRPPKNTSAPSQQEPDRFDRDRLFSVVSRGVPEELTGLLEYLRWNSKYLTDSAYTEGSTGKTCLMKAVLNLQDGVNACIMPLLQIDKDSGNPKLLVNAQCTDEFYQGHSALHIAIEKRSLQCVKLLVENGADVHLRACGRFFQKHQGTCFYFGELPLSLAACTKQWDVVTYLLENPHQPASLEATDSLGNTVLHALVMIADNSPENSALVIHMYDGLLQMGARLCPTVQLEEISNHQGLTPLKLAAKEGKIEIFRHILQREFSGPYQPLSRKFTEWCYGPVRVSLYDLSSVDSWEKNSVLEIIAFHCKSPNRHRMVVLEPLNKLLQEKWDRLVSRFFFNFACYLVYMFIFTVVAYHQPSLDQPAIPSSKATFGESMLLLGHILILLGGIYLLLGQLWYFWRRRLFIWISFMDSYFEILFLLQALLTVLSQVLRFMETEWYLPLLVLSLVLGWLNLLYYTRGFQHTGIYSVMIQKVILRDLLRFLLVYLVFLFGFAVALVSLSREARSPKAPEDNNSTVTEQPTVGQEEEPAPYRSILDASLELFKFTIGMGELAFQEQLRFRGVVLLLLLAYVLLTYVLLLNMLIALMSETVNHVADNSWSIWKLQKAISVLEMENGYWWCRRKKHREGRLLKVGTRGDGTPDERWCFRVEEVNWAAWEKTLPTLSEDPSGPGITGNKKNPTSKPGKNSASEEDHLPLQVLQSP

[5] = target: T3, A3 (h) (Homo sapiens, UniProt P0DMS8); experiment: CEREP panel; type: binding; details: 10 µM
T3 construct: CEREP
T3 sequence (P0DMS8 1-318): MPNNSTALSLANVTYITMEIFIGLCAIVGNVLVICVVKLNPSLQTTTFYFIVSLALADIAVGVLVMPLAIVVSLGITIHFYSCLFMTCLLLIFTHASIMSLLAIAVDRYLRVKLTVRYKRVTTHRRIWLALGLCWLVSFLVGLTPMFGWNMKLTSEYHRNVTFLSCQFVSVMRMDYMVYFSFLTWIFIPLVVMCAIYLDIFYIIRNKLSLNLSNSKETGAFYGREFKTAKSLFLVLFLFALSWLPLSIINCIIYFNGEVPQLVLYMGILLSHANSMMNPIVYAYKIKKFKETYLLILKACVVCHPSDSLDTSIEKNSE

[6] = target: hCB2R (Homo sapiens, UniProt P34972); set-up: expressed in transfected cells; host or cells: Flp-In-293 (Invitrogen #R750-07), pcDNA5/FRT
[7] = target: T4, MT3 (ML2) (Mesocricetus auratus, UniProt A0ABM2YAB8); experiment: CEREP panel; type: binding; details: for inhibition at 10 µM: read-out: % inhibition MT3 (ML2); for % inhibition MT3 (ML2): 10 µM
T4 construct: CEREP (contract assay)
T4 sequence (A0ABM2YAB8 1-231): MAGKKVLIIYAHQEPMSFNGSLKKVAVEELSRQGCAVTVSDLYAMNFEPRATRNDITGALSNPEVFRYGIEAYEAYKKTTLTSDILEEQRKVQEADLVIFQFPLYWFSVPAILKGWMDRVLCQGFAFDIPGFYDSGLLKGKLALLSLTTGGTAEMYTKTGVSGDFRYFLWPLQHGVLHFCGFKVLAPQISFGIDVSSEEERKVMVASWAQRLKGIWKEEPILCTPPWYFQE

[8] = target: T5, hCB1R (Homo sapiens, UniProt P21554); experiment: cell-based; type: cell-based
T5 construct: host or cells: CHO

[9] = target: T5, hCB1R; experiment: cell-based; type: cell-based; remark: listed apart in the source
[10] = read-out: TRPV1 IC50 for antagonism or desensitization

hCB2R, sequence (P34972 whole entry): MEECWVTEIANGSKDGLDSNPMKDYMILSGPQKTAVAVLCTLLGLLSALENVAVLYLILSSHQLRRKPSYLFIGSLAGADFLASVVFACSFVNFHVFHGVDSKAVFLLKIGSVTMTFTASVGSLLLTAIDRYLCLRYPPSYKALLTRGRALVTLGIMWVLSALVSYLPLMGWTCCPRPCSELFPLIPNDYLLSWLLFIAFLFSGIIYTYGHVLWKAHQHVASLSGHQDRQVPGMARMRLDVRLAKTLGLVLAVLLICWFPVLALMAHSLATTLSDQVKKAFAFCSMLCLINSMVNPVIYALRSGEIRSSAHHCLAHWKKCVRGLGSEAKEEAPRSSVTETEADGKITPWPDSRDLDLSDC
T1 sequence (Q8NER1 whole entry): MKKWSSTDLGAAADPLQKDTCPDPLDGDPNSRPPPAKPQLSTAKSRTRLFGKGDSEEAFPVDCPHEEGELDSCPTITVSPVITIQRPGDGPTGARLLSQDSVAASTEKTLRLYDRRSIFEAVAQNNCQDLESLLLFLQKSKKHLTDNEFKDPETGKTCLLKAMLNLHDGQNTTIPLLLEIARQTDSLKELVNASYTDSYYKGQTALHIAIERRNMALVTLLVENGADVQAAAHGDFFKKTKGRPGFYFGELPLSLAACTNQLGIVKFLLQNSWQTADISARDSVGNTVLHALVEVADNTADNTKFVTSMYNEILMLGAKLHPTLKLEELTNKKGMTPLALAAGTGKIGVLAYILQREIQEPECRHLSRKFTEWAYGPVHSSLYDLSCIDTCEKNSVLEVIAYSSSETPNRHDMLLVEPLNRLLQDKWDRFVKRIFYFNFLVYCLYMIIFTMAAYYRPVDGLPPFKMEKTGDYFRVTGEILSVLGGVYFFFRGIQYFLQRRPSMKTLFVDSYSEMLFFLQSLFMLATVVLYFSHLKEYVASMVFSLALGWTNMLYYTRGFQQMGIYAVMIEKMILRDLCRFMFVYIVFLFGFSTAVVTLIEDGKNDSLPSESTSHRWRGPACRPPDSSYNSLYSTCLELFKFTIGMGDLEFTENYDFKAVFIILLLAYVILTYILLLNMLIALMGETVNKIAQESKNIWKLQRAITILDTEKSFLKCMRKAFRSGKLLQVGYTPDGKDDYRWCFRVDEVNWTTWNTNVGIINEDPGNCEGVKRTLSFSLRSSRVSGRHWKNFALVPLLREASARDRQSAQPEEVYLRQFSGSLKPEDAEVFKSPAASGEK
T5 sequence (P21554 whole entry): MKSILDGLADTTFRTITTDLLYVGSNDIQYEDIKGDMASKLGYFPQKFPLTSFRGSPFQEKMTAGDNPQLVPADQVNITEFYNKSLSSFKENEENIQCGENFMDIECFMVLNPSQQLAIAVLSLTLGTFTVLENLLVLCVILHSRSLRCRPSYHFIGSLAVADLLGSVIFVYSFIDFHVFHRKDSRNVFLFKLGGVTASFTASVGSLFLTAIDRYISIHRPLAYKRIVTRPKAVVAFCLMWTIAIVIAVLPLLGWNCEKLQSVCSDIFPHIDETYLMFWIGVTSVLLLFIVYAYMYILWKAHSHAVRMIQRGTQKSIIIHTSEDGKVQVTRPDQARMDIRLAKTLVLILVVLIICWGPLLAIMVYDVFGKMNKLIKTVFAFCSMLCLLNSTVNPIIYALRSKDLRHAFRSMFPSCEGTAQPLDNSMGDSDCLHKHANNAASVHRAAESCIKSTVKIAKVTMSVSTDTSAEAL

## COc1ccc(C(=O)c2c(C)n(CCN3CCOCC3)c3cc(I)ccc23)cc1 [AM630]
[1]
  % inhibition BZD (central): -12%
[2]
  TRPV1 Efficacy (% ionomycin 4μM): < 10%
[2]; [10]
  IC50: > 100 µM
[3]
  AUCinf: 197 ng·h/mL
  AUCinf/dose: 197 kg·ng·h/mL/mg
  AUClast: 177 ng·h/mL
  CL: 85 mL/min/kg
  T1/2: 2.9 h
  C0: 69.8 ng/mL
[4]
  TRPV2 Efficacy (% ionomycin 4μM): < 10%
  IC50: 35.6 µM
[5]
  % inhibition A3 (h): 76%

## CCCCCCC(C)(C)c1ccc([C@@H]2C[C@H](O)CC[C@H]2CCCO)c(O)c1 [CP55940]
[1]
  % inhibition BZD (central): -9%
[6]
  GIRK-GTPγS bias factor (BF): 1.00
  GIRK-GTPγS ΔΔlogR: 0 ± 0.34
  GIRK-cAMP bias factor (BF): 1.00
  GIRK-cAMP ΔΔlogR: 0 ± 0.12
  GTPγS-cAMP bias factor (BF): 1.00
  GTPγS-cAMP ΔΔlogR: 0 ± 0.34
  LogR GIRK: 7.863
  RE GIRK: 1.00
  RE GTPγS: 1.00
  RE cAMP: 1.00
  RE pERK: 1.00
  RE β-AR: 1.00
  pERK-GIRK bias factor (BF): 1.00
  pERK-GIRK ΔΔlogR: 0 ± 0.25
  pERK-GTPγS bias factor (BF): 1.00
  pERK-GTPγS ΔΔlogR: 0 ± 0.41
  pERK-cAMP bias factor (BF): 1.00
  pERK-cAMP ΔΔlogR: 0 ± 0.26
  ΔLogR GIRK: 0 ± 0.07
  ΔLogR GTPγS: 0 ± 0.33
  ΔLogR cAMP: 0 ± 0.09
  ΔLogR pERK: 0 ± 0.24
  ΔLogR β-AR: 0 ± 0.07
  β-AR-GIRK bias factor (BF): 1.00
  β-AR-GIRK ΔΔlogR: 0 ± 0.1
  β-AR-GTPγS bias factor (BF): 1.00
  β-AR-GTPγS ΔΔlogR: 0 ± 0.34
  β-AR-cAMP bias factor (BF): 1.00
  β-AR-cAMP ΔΔlogR: 0 ± 0.12
  β-AR-pERK bias factor (BF): 1.00
  β-AR-pERK ΔΔlogR: 0 ± 0.25
[7]
  inhibition at 10 µM: 22%
[5]; read-out: % inhibition A3 (h)
  inhibition at 10 µM: 98%

## Cc1ccc2c(c1)Cc1c(C(=O)NN3CCCCC3)nn(-c3ccc(Cl)cc3Cl)c1-2 [Gp-1a]
[1]
  % inhibition BZD (central): -10%
[2]
  TRPV1 Efficacy (% ionomycin 4μM): < 10%
[2]; [10]
  IC50: 3 ± 0.1 µM
[3]
  AUCinf: 825 ng·h/mL
  AUCinf/dose: 412 kg·ng·h/mL/mg
  AUClast: 658 ng·h/mL
  CL: 40 mL/min/kg
  T1/2: 3.5 h
  C0: 351 ng/mL
[7]
  % inhibition MT3 (ML2): 33%
[8]
  pEC50 ± SEM GIRK hCB1R: 5.26 ± 0.1
[9]
  Emax ± SEM pERK hCB1R: 2 ± 3
[4]
  TRPV2 Efficacy (% ionomycin 4μM): < 10%
  IC50: 11.9 µM
[5]
  % inhibition A3 (h): 95%

## CCCn1c(C)c(C(=O)c2cccc3ccccc23)c2ccccc21 [JWH015]
[1]
  % inhibition BZD (central): -57%
[3]
  AUCinf: 174 ng·h/mL
  AUCinf/dose: 158 kg·ng·h/mL/mg
  AUClast: 163 ng·h/mL
  CL: 105 mL/min/kg
  T1/2: 2.6 h
  C0: 438 ng/mL
[7]
  % inhibition MT3 (ML2): 49%
[5]
  % inhibition A3 (h): 93%

## Cc1c(C(=O)NN2CCCCC2)nn(-c2ccc(Cl)cc2Cl)c1-c1ccc(Cl)cc1 [SR141716A]
[2]
  TRPV1 Efficacy (% ionomycin 4μM): 17.5%
  EC50: 12 µM
[2]; TRPV1 IC50 for antagonism or desensitization
  IC50: 33.7 µM and 11.5 µM
[7]
  inhibition at 10 µM: 4%
[4]
  TRPV2 Efficacy (% ionomycin 4μM): < 10%
  IC50: > 100 µM

## Cc1c(C(=O)c2cccc3ccccc23)c2cccc3c2n1[C@H](CN1CCOCC1)CO3 [WIN55212-2]
[1]
  % inhibition BZD (central): 4%
[2]
  TRPV1 Efficacy (% ionomycin 4μM): 44.4%
  EC50: 19.2 µM
[2]; [10]
  IC50: 35.8 ± 2.2 µM
[7]
  % inhibition MT3 (ML2): 69%
[4]
  TRPV2 Efficacy (% ionomycin 4μM): 17.0%
  IC50: 62 µM
[4]; read-out: TRPV2 Potency EC50
  EC50: 14.8 µM
[5]
  % inhibition A3 (h): 84%

## SR144528
[1]
  % inhibition BZD (central): -3%
[2]
  TRPV1 Efficacy (% ionomycin 4μM): < 10%
[7]
  % inhibition MT3 (ML2): -21%
[8]
  Emax ± SEM GIRK hCB1R: 9 ± 4
[9]
  Emax ± SEM pERK hCB1R: -21 ± 2
[4]
  TRPV2 Efficacy (% ionomycin 4μM): < 10%
[5]
  % inhibition A3 (h): 72%
